Experimental findings from patent publication US9938587B2 (priority 2011, dated 2018) are described below.

In assay [1] the test system is DNA repair reporter vectors. Briefly: HCR of DNA repair reporter vectors treated with Cisplatin. The class given is cell-based. The conditions noted are these: reporter vectors treated with Cisplatin before transfection; effect more pronounced in XPA and XPF deficient cells.
Another assay deals with T1, MGMT (Homo sapiens, UniProt P16455).
T1 construct: expressed in transfected cells; host or cells: TK6 lymphoblastoid cells (MGMT-deficient) complemented with MGMT (TK6+MGMT)
T1 sequence (P16455 1-207): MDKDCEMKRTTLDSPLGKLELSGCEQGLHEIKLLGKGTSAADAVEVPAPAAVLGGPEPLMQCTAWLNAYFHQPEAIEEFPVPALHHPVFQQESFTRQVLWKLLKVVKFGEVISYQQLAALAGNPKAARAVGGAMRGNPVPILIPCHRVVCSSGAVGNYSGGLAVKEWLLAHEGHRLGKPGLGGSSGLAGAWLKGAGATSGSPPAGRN
Briefly: O^6Methylguanine HCR (mPlum:T208C reporter), MGMT dependence of signal. As to conditions: TK6+MGMT cells incubated with compound before and after transfection. The assay is classed as cell-based. As for the experimental part:
FIG. 46 is a bar graph showing that the lack of signal is MGMT dependent. BnG stands for O^6-benzylguanine, which inhibits MGMT.
FIG. 44 is an illustration providing an assay for O^6Methylguanine HCR. An […] in fluorescence is expected when the reporter plasmid containing the mPlum:T208C mutation is treated with an agent that induces O^6MeG.
FIG. 46 is a bar graph showing that the lack of signal is MGMT dependent. Reporter expression has been normalized to that for TK6. As expected, the highest reporter expression is observed in MGMT deficient cells.

Assay [2] deals with fluorescent reporter plasmid DNA. Briefly: HCR of plasmids containing etheno lesions induced by CAA. The class given is cell-based, Human. The conditions noted are these: plasmids treated with CAA; lymphoblastoid cell lines. From the text:
Dose and cell line dependent inhibition of transcription in plasmids treated with CAA is shown at right.

Regarding `N.N.[Cl][Pt][Cl]` [Cisplatin], the fluorescent reporter expression entry in assay [1] is recorded as “suppresses florescent reporter expression in a dose dependent manner”.
For `Nc1nc(OCc2ccccc2)c2nc[nH]c2n1` [O^6Benzylguanine, O^6-benzylguanine], the “reporter expression normalized to TK6” value on MGMT is on record as “elevated reporter expression similar to that of the MGMT deficient TK6 cells”.
For `O=CCCl` [chloroacetaldehyde], the fluorescent reporter expression entry in assay [2] is listed as “dose-dependent decrease in fluorescent reporter expression”.
